According to ChEMBL document CHEMBL3232874, “The applications of binuclear metallohydrolases in medicine: recent advances in the design and development of novel drug leads for purple acid phosphatases, metallo-β-lactamases and arginases” (Eur J Med Chem, 2014):
pIC50, pKi: −log10 of the molar value. Square brackets hold non-standard residues; d marks the D form. Peptide text beside a SMILES is read from it. * marks the point of attachment. F2Pmp = N[C@@H](Cc1ccc(C(F)(F)P(=O)(O)O)cc1)C(=O)O; Phe(4-COOH) = N[C@@H](Cc1ccc(C(=O)O)cc1)C(=O)O; Fmoc = O=C(OCC1c2ccccc2-c2ccccc21)*

What was measured:
[1] = Inhibition of human purple acid phosphatase; conditions: for pIC50: read-out: IC50
[2] = target: T1, Fe(3+)-Zn(2+) purple acid phosphatase (Phaseolus vulgaris, UniProt P80366); experiment: Inhibition of red kidney beans purple acid phosphatase
T1 sequence (P80366 whole entry): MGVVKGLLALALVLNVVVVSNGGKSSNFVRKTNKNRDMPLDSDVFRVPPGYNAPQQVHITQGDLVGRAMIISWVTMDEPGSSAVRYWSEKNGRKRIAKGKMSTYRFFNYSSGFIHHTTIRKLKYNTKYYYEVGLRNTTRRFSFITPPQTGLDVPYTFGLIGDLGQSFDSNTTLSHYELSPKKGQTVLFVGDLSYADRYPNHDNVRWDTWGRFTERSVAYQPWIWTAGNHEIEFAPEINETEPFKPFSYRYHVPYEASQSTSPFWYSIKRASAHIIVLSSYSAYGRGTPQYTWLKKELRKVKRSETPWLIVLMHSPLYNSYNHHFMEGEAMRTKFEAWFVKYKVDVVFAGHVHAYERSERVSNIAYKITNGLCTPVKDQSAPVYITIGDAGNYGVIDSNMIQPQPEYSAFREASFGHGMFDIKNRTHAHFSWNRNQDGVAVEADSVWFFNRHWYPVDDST

[3] = Inhibition of human recombinant purple acid phosphatase at pH 4.9
[4] = Inhibition of human recombinant purple acid phosphatase at pH 3.3
[5] = Inhibition of metallo-beta-lactamase VIM2 (unknown origin)
[6] = Inhibition of metallo-beta-lactamase CphA (unknown origin)
[7] = Inhibition of metallo-beta-lactamase BcII (unknown origin)
[8] = Inhibition of metallo-beta-lactamase L1 (unknown origin)
[9] = Inhibition of metallo-beta-lactamase IMP-1 (unknown origin)
Beta-lactamase L1 = Beta-lactamase L1 (Stenotrophomonas maltophilia, UniProt P52700); experiment: Inhibition of Stenotrophomonas maltophilia metallo-beta-lactamase L1 after 5 mins
[10] = Inhibition of pig purple acid phosphatase at pH 4.9; design: species or system Sus scrofa
[11] = Inhibition of pig purple acid phosphatase at pH 3.3; design: species or system Sus scrofa
[12] = Inhibition of arginase (unknown origin); design: species or system Homo sapiens
[13] = Inhibition of Bacillus cereus metallo-beta-lactamase BcII
[14] = target: Metallo-beta-lactamase type 2 (Bacteroides fragilis, UniProt P25910); experiment: Competitive inhibition of Bacteroides fragilis metallo-beta-lactamase CcrA
[15] = Inhibition of metallo-beta-lactamase CcrA (unknown origin)
Arginase-1 = target: T2, Arginase-1 (Rattus norvegicus, UniProt P07824); experiment: Inhibition of rat liver arginase
T2 sequence (P07824 whole entry): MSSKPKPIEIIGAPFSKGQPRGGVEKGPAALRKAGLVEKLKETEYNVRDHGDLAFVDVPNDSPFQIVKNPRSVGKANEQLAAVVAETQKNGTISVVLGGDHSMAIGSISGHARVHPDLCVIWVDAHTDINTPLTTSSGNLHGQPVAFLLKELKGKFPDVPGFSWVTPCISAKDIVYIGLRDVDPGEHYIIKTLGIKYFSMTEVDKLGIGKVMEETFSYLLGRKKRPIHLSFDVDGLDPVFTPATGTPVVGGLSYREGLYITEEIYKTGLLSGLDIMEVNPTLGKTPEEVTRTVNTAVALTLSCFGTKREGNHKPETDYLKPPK

[16] = Inhibition of mouse macrophage arginase
[17] = Inhibition of Bacillus cereus 5/B/6 metallo-beta-lactamase […] incubated for 1 min prior to substrate addition by spectrophotometry
[18] = Inhibition of metallo-beta-lactamase IMP-1 (unknown origin) using nitrocefin as substrate incubated for 15 mins prior to substrate addition
[19] = Competitive inhibition of Bacillus cereus 569/H metallo-beta-lactamase BcII by Eadie-Hofstee plot analysis
[20] = Inhibition of Plasmodium berghei arginase
[21] = Inhibition of human arginase

Beta-lactamase L1, sequence (P52700 whole entry): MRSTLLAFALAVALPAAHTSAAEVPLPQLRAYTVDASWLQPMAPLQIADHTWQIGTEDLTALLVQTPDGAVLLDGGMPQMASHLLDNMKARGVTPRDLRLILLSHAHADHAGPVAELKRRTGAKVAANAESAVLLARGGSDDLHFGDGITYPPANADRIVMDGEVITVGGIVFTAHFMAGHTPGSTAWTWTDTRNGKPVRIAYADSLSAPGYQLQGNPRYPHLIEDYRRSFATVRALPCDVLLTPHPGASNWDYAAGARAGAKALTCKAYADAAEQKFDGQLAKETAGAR
Metallo-beta-lactamase type 2, sequence (P25910 whole entry): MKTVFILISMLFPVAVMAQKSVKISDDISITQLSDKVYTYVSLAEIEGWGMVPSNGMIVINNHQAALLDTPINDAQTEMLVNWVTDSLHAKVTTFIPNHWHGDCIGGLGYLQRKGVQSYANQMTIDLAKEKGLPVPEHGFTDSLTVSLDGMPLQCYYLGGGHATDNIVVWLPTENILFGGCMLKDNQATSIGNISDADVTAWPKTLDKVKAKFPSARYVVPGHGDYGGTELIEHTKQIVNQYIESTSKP

For `O=P(O)(O)C(O)c1cccc2ccccc12` (stereo unspecified), the IC50 [1] was “Not Active”.
`O=P(O)(O)CCCS` gave a pIC50 [2] of 3.80.
Compound `C[C@H](NC(=O)[C@H](Cc1ccc(OC(F)(C(=O)O)C(=O)O)cc1)NC(=O)[C@H](CCC(=O)O)NC(=O)OCC1c2ccccc2-c2ccccc21)C(=O)O` has a pKi [3] of 4.13 and a pKi [4] of 4.44.
`C[C@H](NC(=O)[C@H](Cc1ccc(OC(C(=O)O)C(=O)O)cc1)NC(=O)[C@H](CCC(=O)O)NC(=O)OCC1c2ccccc2-c2ccccc21)C(=O)O` showed a pKi [3] of 4.59 and a pKi [4] of 4.85.
`O=P(O)(O)CS` gave a pIC50 [2] of 4.10.
With `O=P(O)(O)C(Cc1ccc(-c2ccccc2)cc1)c1cccc2ccccc12` (stereo unspecified) the pIC50 [1] was 5.20.
In the case of `O=C(COc1ccccc1)NC(Cc1ccccc1)C(O)C(F)(F)F` (stereo unspecified), the pKi [5] was 5.82, the pKi [6] was 5.82 and the pKi [7] was 5.82. It also gave a pKi [8] of 5.82.
With `O[C@H](CS)[C@H](O)CS` the INH [9] was 0.55 µM.
`COC(=O)c1c(O)ccc2nc3c(C(=O)O)cccc3nc12` showed a pIC50 (Beta-lactamase L1) of 6.00.
Work on `COC(=O)c1cc(SCC(NC(C)=O)C(=O)OC)cc2nc3c(C(=O)O)cccc3nc12` (stereo unspecified) yielded a pIC50 (Beta-lactamase L1) of 6.00.
In the case of `C[C@H](NC(=O)[C@H](Cc1ccc(CC(=O)O)c(C(=O)O)c1)NC(=O)[C@H](CCC(=O)O)NC(=O)OCC1c2ccccc2-c2ccccc21)C(N)=O`, the pKi [10] was 3.55 and the pKi [11] was 3.70.
Compound `OCCCS` has an INH [9] of 2.5 µM.
`O=C(O)CP(=O)(O)O` [FOSFONET] showed a pKi [2] of 3.23.
`O=C(O)c1cccc(C(=O)O)n1` [DIPICOLINIC ACID] gave a pIC50 [7] of 4.66 and a pIC50 [8] of 5.11.
With `NNC(N)=S` [THIOSEMICARBAZIDE] the pKi [12] was 4.00.
Compound `O=C(O)C(S)c1ccccc1` (stereo unspecified) has a pKi [13] of 7.05.
With `c1ccc(-c2nnn[nH]2)c(-c2ccc(Cn3c4ccccc4c4ccccc43)cc2)c1` the pIC50 [14] was 6.52.
`O=P(O)(O)CP(=O)(O)O` [MEDRONIC ACID] gave a pKi [2] of 3.85.
With `CC(NC(=O)COc1ccccc1)C(O)C(F)(F)F` (stereo unspecified) the pKi [5] was 5.82, the pKi [6] was 5.82 and the pKi [7] was 5.82. It also gave a pKi [8] of 5.82.
`O=C(c1ccccc1)C(C(=O)c1ccccc1)(c1cccc2ccccc12)P(=O)(O)O` gave a pIC50 [1] of 5.85.
For `O=C(O)C(S)c1ccc(F)cc1` (stereo unspecified), the pKi [13] was 7.05.
`OCCS` gave an INH [9] of 12 µM.
For `COC1OC(C)=Cc2oc3cc(O)c(O)c(C(=O)O)c3c(=O)c21` (stereo unspecified), the pKi [15] was 5.47, the pKi [7] was 4.10 and the pKi [9] was 4.77.
`COc1ccc(C(S)C(=O)O)cc1` (stereo unspecified) showed a pKi [13] of 7.05.
For `N=C(NO)NCC[C@H](N)C(=O)O` [NOR-NOHA], the pIC50 (Arginase-1) was 5.70 and the pIC50 [16] was 4.30.
`O=S(=O)(N/N=C/c1c2ccccc2cc2ccccc12)c1ccc2ccccc2c1` gave a pKi [17] of 7.70 and a pIC50 [9] of 5.80.
With `O=C(O)[C@@H](Cc1ccc2c(c1)OCO2)[C@H](Cc1ccc2c(c1)OCO2)C(=O)O` the pIC50 [18] was 8.05.
Compound `CC(NC(=O)COc1ccccc1)C(=O)C(F)(F)F` (stereo unspecified) has a pKi [5] of 5.82, a pKi [6] of 5.82 and a pKi [7] of 5.82. It also gave a pKi [8] of 5.82.
In the case of `O[C@H](CS)[C@@H](O)CS`, the INH [9] was 2.2 µM.
`C[C@H](NC(=O)[C@H](Cc1ccc(C(F)(C(=O)O)C(=O)O)cc1)NC(=O)[C@H](CCC(=O)O)NC(=O)OCC1c2ccccc2-c2ccccc21)C(N)=O` showed a pKi [10] of 4.31 and a pKi [11] of 5.10.
Work on `O=C(O)c1ccccc1S` [THIOSALICYLIC ACID] yielded a pKi [13] of 5.04.
`C[C@H](NC(=O)[C@H](Cc1ccc(OCC(=O)O)c(C(=O)O)c1)NC(=O)[C@H](CCC(=O)O)NC(=O)OCC1c2ccccc2-c2ccccc21)C(N)=O` showed a pKi [10] of 3.84 and a pKi [11] of 3.95.
Work on `C[C@H](NC(=O)[C@H](Cc1ccc(C(=O)O)cc1)NC(=O)[C@H](CCC(=O)O)NC(=O)OCC1c2ccccc2-c2ccccc21)C(N)=O` (Fmoc-Glu-[Phe(4-COOH)]-Ala-NH2) yielded a pKi [10] of 3.79 and a pKi [11] of 4.00.
In the case of `SCc1ccccc1` [BENZENEMETHANETHIOL], the pIC50 [13] was 5.04.
Work on `CC(=O)Oc1cc(C[C@H](NC(=O)[C@H](CCC(=O)O)NC(=O)OCC2c3ccccc3-c3ccccc32)C(=O)N[C@@H](C)C(N)=O)ccc1OCC(=O)O` yielded a pKi [10] of 3.11 and a pKi [11] of 3.38.
In the case of `O=C(O)CCP(=O)(O)O`, the pKi [2] was 3.80.
Compound `O=C(O)CS` has an INH [9] of 0.23 µM.
With `C[C@H](NC(=O)[C@H](Cc1ccc(C(F)(F)P(=O)(O)O)cc1)NC(=O)[C@H](CCC(=O)O)NC(=O)OCC1c2ccccc2-c2ccccc21)C(=O)O` (Fmoc-Glu-[F2Pmp]-Ala-OH) the pKi [3] was 4.20 and the pKi [4] was 4.17.
For `CC(=O)N[C@H]1[C@H](O[C@H]2C[C@@H](C(=O)NCCS(=O)(=O)O)N[C@@H]2CO)O[C@H](CO)[C@@H](OS(=O)(=O)O)[C@@H]1O` [BULGECIN A], the pIC50 [19] was 3.64.
Compound `N[C@@H](CCCC[N+](=O)[O-])C(=O)O` has a pKi [20] of 4.96 and a pKi [21] of 4.22.
`O=C(COc1ccccc1)NC(Cc1ccccc1)C(=O)C(F)(F)F` (stereo unspecified) gave a pKi [5] of 5.82, a pKi [6] of 5.82 and a pKi [7] of 5.82. The pKi [8] was 5.82.
With `O=P(O)(O)Cc1cccc2ccccc12` the pIC50 [1] was 4.52.
`CC(S)C(=O)O` (stereo unspecified) gave an INH [9] of 0.19 µM.
`O=P(O)(O)c1ccccc1S` gave a pIC50 [2] of 3.46.
Compound `O=P(O)(O)CCS` has a pIC50 [2] of 2.52.
`CCOC(=O)CCS` gave an INH [9] of 0.25 µM.
In the case of `O=C(O)CCS`, the INH [9] was 1.2 µM.
For `C[C@H](NC(=O)[C@H](Cc1ccc(C(C(=O)O)C(=O)O)cc1)NC(=O)[C@H](CCC(=O)O)NC(=O)OCC1c2ccccc2-c2ccccc21)C(N)=O`, the pKi [10] was 4.42 and the pKi [11] was 5.22.
For `CCOC(=O)CS`, the INH [9] was 1.4 µM.
